ChEMBL document CHEMBL1201862, “PubChem BioAssay data set” (2004)
Active and inactive are the calls of the source.

How the values were obtained:
INS1 [1] = assay: INS-1E mitochondrial potential rescue under cytokines – cell-based, JC-1 fluorescence ratio, dry powder, dose response (AID 488931); format: functional; conditions: Rattus norvegicus
INS1 [2] = assay: INS-1E mitochondrial potential loss inhibitors – cell-based, JC-1 fluorescence, dry powder, set 2, dose response (AID 488867); format: functional; conditions: Rattus norvegicus
INS1 [3] = assay: beta-cell survival under cytokine stress – INS-1E, ATP luminescence, dry powder, dose response (AID 488844); format: functional, cell-based; conditions: Rattus norvegicus
Hexokinase-1 = Hexokinase-1 (Homo sapiens, UniProt P19367); assay: SAR analysis of small molecule inhibitors of hexokinase domain containing I (HKDC1) in the hexokinase 1 selectivity assay. [Related pubchem assays (depositor defined):AID493160, AID493190]; format: functional
Hexokinase HKDC1 = target: T1, Hexokinase HKDC1 (Homo sapiens, UniProt Q2TB90); assay: SAR analysis of small molecule inhibitors of hexokinase domain containing I (HKDC1). [Related pubchem assays (depositor defined):AID493160, AID493190]; format: functional
T1 sequence (Q2TB90 whole entry): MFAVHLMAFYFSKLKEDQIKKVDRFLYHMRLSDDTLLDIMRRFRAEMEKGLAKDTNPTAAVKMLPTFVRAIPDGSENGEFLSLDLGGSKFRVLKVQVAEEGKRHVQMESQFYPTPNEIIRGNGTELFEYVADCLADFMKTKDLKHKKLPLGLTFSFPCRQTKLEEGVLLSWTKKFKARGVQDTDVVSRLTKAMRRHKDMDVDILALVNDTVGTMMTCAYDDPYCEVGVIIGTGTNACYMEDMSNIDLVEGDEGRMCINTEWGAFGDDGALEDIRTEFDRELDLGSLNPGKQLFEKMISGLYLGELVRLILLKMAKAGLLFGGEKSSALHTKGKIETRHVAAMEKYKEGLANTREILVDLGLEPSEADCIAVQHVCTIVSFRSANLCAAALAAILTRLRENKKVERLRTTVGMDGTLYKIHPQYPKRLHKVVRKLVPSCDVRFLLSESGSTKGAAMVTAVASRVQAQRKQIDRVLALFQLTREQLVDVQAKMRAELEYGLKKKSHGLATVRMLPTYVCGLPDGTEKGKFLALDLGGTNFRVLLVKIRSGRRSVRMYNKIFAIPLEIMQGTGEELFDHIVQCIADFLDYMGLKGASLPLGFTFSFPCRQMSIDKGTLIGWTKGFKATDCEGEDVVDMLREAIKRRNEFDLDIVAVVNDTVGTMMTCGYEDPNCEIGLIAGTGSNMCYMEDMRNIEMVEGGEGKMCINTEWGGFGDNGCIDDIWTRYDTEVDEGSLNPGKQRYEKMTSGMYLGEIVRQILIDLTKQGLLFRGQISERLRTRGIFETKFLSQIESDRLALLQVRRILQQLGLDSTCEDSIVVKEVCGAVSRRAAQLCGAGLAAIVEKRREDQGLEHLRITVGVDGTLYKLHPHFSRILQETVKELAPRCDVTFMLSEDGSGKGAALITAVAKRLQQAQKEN

[4] = target: T2, Nuclear receptor subfamily 0 group B member 1 (Homo sapiens, UniProt P51843); assay: Luminescence-based cell-based high throughput dose response assay for inhibitors of the orphan nuclear receptor subfamily 0, group B, member 1 (DAX1; NR0B1). [Related pubchem assays (depositor defined):AID504766, AID504790]; format: functional
T2 sequence (P51843 whole entry): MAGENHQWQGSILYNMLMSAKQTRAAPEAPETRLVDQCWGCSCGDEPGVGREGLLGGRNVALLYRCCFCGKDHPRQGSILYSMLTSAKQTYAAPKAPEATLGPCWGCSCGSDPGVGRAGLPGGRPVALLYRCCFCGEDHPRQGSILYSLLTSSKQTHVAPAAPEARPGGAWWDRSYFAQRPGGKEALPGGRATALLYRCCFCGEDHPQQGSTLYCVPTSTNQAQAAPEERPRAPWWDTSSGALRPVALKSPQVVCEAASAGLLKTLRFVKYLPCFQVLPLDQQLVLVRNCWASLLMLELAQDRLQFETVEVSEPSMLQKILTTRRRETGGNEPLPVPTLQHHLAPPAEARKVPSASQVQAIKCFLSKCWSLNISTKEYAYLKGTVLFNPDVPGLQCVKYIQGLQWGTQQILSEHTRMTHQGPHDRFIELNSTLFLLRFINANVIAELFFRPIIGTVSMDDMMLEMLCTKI

Major prion protein = Major prion protein (Homo sapiens, UniProt P04156); format: functional, cell-based
HEK293 = assay: cells; format: functional, cell-based; conditions: Homo sapiens

For `COc1ccc(S(=O)(=O)N(C)C[C@H]2Oc3c(NC(=O)Nc4cccc5ccccc45)cccc3C(=O)N([C@@H](C)CO)C[C@@H]2C)cc1`, the AC50 (INS1 [1]) was 104 µM (active), the AC50 (INS1 [2]) was > 260 µM (inactive) and the AC50 (INS1 [3]) was 85 µM (active).

For `COc1cc2c(cc1OC)-c1cc(NCc3ccccc3)nc(=O)n1CC2`, the IC50 (Hexokinase-1) was > 80 µM (inactive) and the IC50 (Hexokinase HKDC1) was > 80 µM (inactive).

In the case of `CC(C)CSc1nnc2c3ccccc3n(C)c2n1`, the IC50 (cells) is reported as > 138 µM (inactive), the IC50 [4] is reported as > 67.5 µM (inactive) and the IC50 (Major prion protein) is reported as 4.37 µM (active). For the same molecule, the IC50 (HEK293) was > 67.5 µM (inactive).
